# Reference: US4343812A, “Antidepressant 2-amino-and-2-(substituted amino)-cis-hexahydro-carbazoles, compositions and use” (E. I. Du Pont de Nemours and Company, priority 1980, dated 1982)
# Counter-ions that a name gives are not always drawn. Like-named read-outs stand apart in the source and are kept apart here.
# Key:
# [1] = prior art; cited from earlier work
# dogs = conditions: prior art; cited from earlier work
# [2] = prior art; cited from earlier work; remark: listed apart in the source
# [3] = tested on: tetrabenazine-induced sedation and depression in mice; experiment: Antagonism of tetrabenazine-induced depression in mice (prevention of ptosis and exploratory loss), orally at 1 hour post-drug; assay type: in vivo, mice (Carworth CF1 S female); conditions: Mus musculus, oral, tetrabenazine 32 mg/kg intraperitoneally 30 minutes after drug
# Description: (Everett, "The Dopa Response Potentiation Test and Its Use in Screening for Antidepressant Drugs", pp. 164-167 in "Antidepressant Drugs" [Proceedings of the First International Symposium], S. Garattini and M. N. G. Dukes, eds., 1967). Groups of 10 Carworth CF1 S female mice, 18-21 g each, were fasted 1.5 hours and were intubated with antagonist compounds at oral doses of 0, 5, 25, and 125 mg/kg or 0, 1, 3, 9, 27, and 81 mg/kg in 0.20 ml of 1% Methocel (methylcellulose). The mice were challenged 30 minutes later with tetrabenazine (as the methane-sulfonate), 32 mg/kg intraperitoneally (dissolved in 0.20 ml 0.05 M KCl at pH 2.0). One hour after antagonist (30 minutes after tetrabenazine), the mice were examined for signs of exploratory activity and ptosis (eyelid closure). Normal exploratory activity (relief from sedation) was recorded when a mouse lifted by the tail from a group of 10 in a testing box and placed on a stainless steel testing box lid (12.5"×8" with 0.33" mesh) either turned its head horizontally 30° in both directions or moved to the edge of the screen within 10 seconds after being placed on the screen. Relief from ptosis was recorded when exactly two seconds after placing the mouse facing the observer, lid closure was less than 50% in both eyes. For comparison, the marketed antidepressant amitriptylene was also tested, and an ED50 (effective dose in 50% of the cases) was determined. The lower the ED50, the better the antidepressant.
# [4] = read-out: ED50 For Prevention of Exploratory Loss
# [5] = read-out: ED50 For Prevention of Ptosis
Compound,analgetic and psychotropic activity [1],cardiotonic effects (dogs),antidepressant activity [2],"ED50 [3, 4]","ED50 [3, 5]"
CN(C)C1CCc2[nH]c3ccccc3c2C1 (stereo not drawn),analgetic and psychotropic activity,–,–,–,–
CN(C)C1CCc2[nH]c3cc(O)ccc3c2C1 (stereo not drawn),–,cardiotonic effects,–,–,–
CNCCCC1CN(c2ccccc2)c2ccccc21 (stereo not drawn),–,–,antidepressant activity,–,–
CCCCCOc1ccc2c(c1)N[C@@H]1CC(NC(C)=O)CC[C@H]21 (stereo partly drawn) [Compound 1L],–,–,–,2 mg/kg,2 mg/kg
"CC(=O)NC1CC[C@@H]2c3ccccc3N[C@@H]2C1 (stereo partly drawn) [Compound 1a, N-(cis-1,3,4,4a,9,9a-hexahydro-2H-carbazol-2-yl)acetamide hydrochloride]",–,–,–,2.3 mg/kg,0.7 mg/kg
CC(=O)NC1CC[C@@H]2c3cc(F)ccc3N[C@@H]2C1 (stereo partly drawn) [Compound 1b],–,–,–,4.2 mg/kg,2.7 mg/kg
CC(=O)NC1CC[C@@H]2c3cc(Cl)ccc3N[C@@H]2C1 (stereo partly drawn) [Compound 1c],–,–,–,14 mg/kg,3.3 mg/kg
CC(=O)NC1CC[C@@H]2c3cc(Br)ccc3N[C@@H]2C1 (stereo partly drawn) [Compound 1d],–,–,–,3.3 mg/kg,2.1 mg/kg
CC(=O)NC1CC[C@@H]2c3cc(C)ccc3N[C@@H]2C1 (stereo partly drawn) [Compound 1e],–,–,–,34 mg/kg,16 mg/kg
COc1ccc2c(c1)[C@H]1CCC(NC(C)=O)C[C@H]1N2 (stereo partly drawn) [Compound 1f],–,–,–,27 mg/kg,27 mg/kg
CC(=O)NC1CC[C@@H]2c3ccc(O)cc3N[C@@H]2C1 (stereo partly drawn) [Compound 1g],–,–,–,15.6 mg/kg,8.1 mg/kg
COc1ccc2c(c1)NC1CC(NC(C)=O)CCC21 (stereo not drawn) [Compound 1h],–,–,–,4.2 mg/kg,2.2 mg/kg
CCOc1ccc2c(c1)N[C@@H]1CC(NC(C)=O)CC[C@H]21 (stereo partly drawn) [Compound 1i],–,–,–,12.7 mg/kg,8.9 mg/kg
CCCOc1ccc2c(c1)N[C@@H]1CC(NC(C)=O)CC[C@H]21 (stereo partly drawn) [Compound 1j],–,–,–,0.99 mg/kg,0.79 mg/kg
CCCCOc1ccc2c(c1)N[C@@H]1CC(NC(C)=O)CC[C@H]21 (stereo partly drawn) [Compound 1k],–,–,–,0.35 mg/kg,0.22 mg/kg
CCCCCCOc1ccc2c(c1)N[C@@H]1CC(NC(C)=O)CC[C@H]21 (stereo partly drawn) [Compound 1m],–,–,–,27 mg/kg,27 mg/kg
CC(=O)NC1CCC2c3ccc(OCc4ccccc4)cc3NC2C1 (stereo not drawn) [Compound 1n],–,–,–,7.2 mg/kg,6.5 mg/kg
"CC(=O)NC1CC[C@@H]2c3ccccc3N(C)[C@@H]2C1 (stereo partly drawn) [Compound 1o, N -(cis-1,3,4,4a,9,9a-hexahydro-9-methyl-2H-carbazol-2-yl)acetamide]",–,–,–,27 mg/kg,3.7 mg/kg
O=CNC1CCC2c3ccccc3NC2C1 (stereo not drawn) [Compound 1p],–,–,–,21 mg/kg,21 mg/kg

Compound,analgetic and psychotropic activity [1],cardiotonic effects (dogs),antidepressant activity [2],"ED50 [3, 4]","ED50 [3, 5]"
CCC(=O)NC1CCC2c3ccccc3NC2C1 (stereo not drawn) [Compound 1q],–,–,–,18 mg/kg,1.7 mg/kg
CCCCC(=O)NC1CCC2c3ccccc3NC2C1 (stereo not drawn) [Compound 1r],–,–,–,7.5 mg/kg,6.5 mg/kg
CCOC(=O)NC1CCC2c3ccccc3NC2C1 (stereo not drawn) [Compound 1s],–,–,–,4 mg/kg,4 mg/kg
COC(=O)NC1CCC2c3ccccc3NC2C1 (stereo not drawn) [Compound 1t],–,–,–,9.7 mg/kg,5.2 mg/kg
NC1CCC2c3ccccc3NC2C1 (stereo not drawn) [Compound 1u],–,–,–,0.75 mg/kg,0.57 mg/kg
CNC1CCC2c3ccccc3NC2C1 (stereo not drawn) [Compound 1v],–,–,–,3 mg/kg,2.4 mg/kg
CCNC1CCC2c3ccccc3NC2C1 (stereo not drawn) [Compound 1w],–,–,–,96 mg/kg,68 mg/kg
CN(C)C1CCC2c3ccccc3NC2C1 (stereo not drawn) [Compound 1x],–,–,–,41 mg/kg,37 mg/kg
"CCN1c2ccccc2[C@H]2CCC(NC(C)=O)C[C@H]21 (stereo partly drawn) [Compound 1y, N-(cis-9-ethyl-1,3,4,4a,9,9a-hexahydro-2H-carbazol-2-yl) acetamide]",–,–,–,5.2 mg/kg,4.7 mg/kg
"CCOc1ccc2c3c([nH]c2c1)CC(NC(C)=O)CC3 (stereo not drawn) [Compound 2L, N-(7-ethoxy-1,3,4,9-tetrahydro-2H-carbazol-2-yl)acetamide]",–,–,–,2 mg/kg,2 mg/kg
"CC(=O)NC1CCc2c([nH]c3ccccc23)C1 (stereo not drawn) [Compound 2a, N-(1,3,4,9-tetrahydro-2H-carbazol-2-yl)acetamide]",–,–,–,2.4 mg/kg,1.1 mg/kg
"CC(=O)NC1CCc2c([nH]c3ccc(F)cc23)C1 (stereo not drawn) [Compound 2b, N-(6-fluoro-1,3,4,9-tetrahydro-2H-carbazol-2-yl)acetamide]",–,–,–,2.4 mg/kg,0.7 mg/kg
CC(=O)NC1CCc2c([nH]c3ccc(Cl)cc23)C1 (stereo not drawn) [Compound 2c],–,–,–,6.5 mg/kg,2.4 mg/kg
"CC(=O)NC1CCc2c([nH]c3ccc(Br)cc23)C1 (stereo not drawn) [Compound 2d, N-(6-bromo-1,3,4,9-tetrahydro-2H-carbazol-2-yl)acetamide]",–,–,–,17.4 mg/kg,10 mg/kg
CC(=O)NC1CCc2c([nH]c3c(F)cccc23)C1 (stereo not drawn) [Compound 2e],–,–,–,19.7 mg/kg,14 mg/kg
CC(=O)NC1CCc2c([nH]c3cc(Cl)cc(Cl)c23)C1 (stereo not drawn) [Compound 2f],–,–,–,4.7 mg/kg,3.3 mg/kg
CC(=O)NC1CCc2c([nH]c3ccc(C)cc23)C1 (stereo not drawn) [Compound 2g],–,–,–,7.2 mg/kg,3 mg/kg
"COc1ccc2[nH]c3c(c2c1)CCC(NC(C)=O)C3 (stereo not drawn) [Compound 2h, N-(1,3,4,9-tetrahydro-6-methoxy-2H-carbazol-2-yl)acetamide]",–,–,–,6.5 mg/kg,5.8 mg/kg
"COc1ccc2c3c([nH]c2c1)CC(NC(C)=O)CC3 (stereo not drawn) [Compound 2i, N-(1,3,4,9-tetrahydro-7-methoxy-2H-carbazol-2-yl)acetamide]",–,–,–,0.9 mg/kg,0.8 mg/kg

Compound,analgetic and psychotropic activity [1],cardiotonic effects (dogs),antidepressant activity [2],"ED50 [3, 4]","ED50 [3, 5]"
"CCCCOc1ccc2c3c([nH]c2c1)CC(NC(C)=O)CC3 (stereo not drawn) [Compound 2j, N-(7-n-butyloxy-1,3,4,9-tetrahydro-2H-carbazol-2-yl)acetamide]",–,–,–,0.57 mg/kg,0.51 mg/kg
"CC(=O)NC1CCc2c([nH]c3cc(O)ccc23)C1 (stereo not drawn) [Compound 2k, N-(1,3,4,9-tetrahydro-7-hydroxy-2H-carbazol-2-yl)acetamide]",–,–,–,> 125 mg/kg,> 125 mg/kg
CCCOc1ccc2c3c([nH]c2c1)CC(NC(C)=O)CC3 (stereo not drawn) [Compound 2m],–,–,–,0.6 mg/kg,0.6 mg/kg
CCCCCOc1ccc2c3c([nH]c2c1)CC(NC(C)=O)CC3 (stereo not drawn) [Compound 2n],–,–,–,4.3 mg/kg,2.7 mg/kg
CCCCCCOc1ccc2c3c([nH]c2c1)CC(NC(C)=O)CC3 (stereo not drawn) [Compound 2o],–,–,–,12 mg/kg,14 mg/kg
CC(=O)NC1CCc2c([nH]c3cc(OCc4ccccc4)ccc23)C1 (stereo not drawn) [Compound 2p],–,–,–,6.5 mg/kg,6.5 mg/kg
"CC(=O)NC1CCc2c(n(C)c3ccccc23)C1 (stereo not drawn) [Compound 3L, N-(1,3,4,9-tetrahydro-9-methyl-2H-carbazol-2-yl)acetamide]",–,–,–,11.2 mg/kg,9 mg/kg
"Cl.NC1CCc2c([nH]c3ccccc23)C1 (stereo not drawn) [Compound 3a, 2,3,4,9-Tetrahydro-1H-carbazol-2-amine hydrochloride]",–,–,–,8 mg/kg,4 mg/kg
"O=CNC1CCc2c([nH]c3ccccc23)C1 (stereo not drawn) [Compound 3b, N-(1,3,4,9-tetrahydro-2H-carbazol-2-yl)formamide]",–,–,–,> 125 mg/kg,84 mg/kg
"CCC(=O)NC1CCc2c([nH]c3ccccc23)C1 (stereo not drawn) [Compound 3c, N-(1,3,4,9-tetrahydro-2H-carbazol-2-yl)propanamide]",–,–,–,> 81 mg/kg,67 mg/kg
CCCCC(=O)NC1CCc2c([nH]c3ccccc23)C1 (stereo not drawn) [Compound 3d],–,–,–,> 81 mg/kg,> 81 mg/kg
"CCOC(=O)NC1CCc2c([nH]c3ccccc23)C1 (stereo not drawn) [Compound 3e, (1,3,4,9-tetrahydro-2H-carbazol-2-yl)carbamic acid, ethyl ester]",–,–,–,> 81 mg/kg,40 mg/kg
COC(=O)NC1CCc2c([nH]c3ccccc23)C1 (stereo not drawn) [Compound 3f],–,–,–,> 81 mg/kg,> 81 mg/kg
"CCOC(=O)N(C)C1CCc2c([nH]c3ccccc23)C1 (stereo not drawn) [Compound 3g, Methyl(1,3,4,9-tetrahydro-2H-carbazol-2-yl)carbamic acid, ethyl ester]",–,–,–,27 mg/kg,7.8 mg/kg
"CC(=O)N(C)C1CCc2c([nH]c3ccccc23)C1 (stereo not drawn) [Compound 3h, N-(1,3,4,9-tetrahydro-2H-carbazol-2-yl)-N-methylacetamide]",–,–,–,> 125 mg/kg,> 125 mg/kg
"CCNC1CCc2c([nH]c3ccccc23)C1.Cl (stereo not drawn) [Compound 3i, N-ethyl-2,3,4,9-tetrahydro-1H-carbazol-2-amine hydrochloride]",–,–,–,27 mg/kg,27 mg/kg
"CNC1CCc2c([nH]c3ccccc23)C1.Cl (stereo not drawn) [Compound 3j, 2,3,4,9-Tetrahydro-N-methyl-1H-carbazol-2-amine hydrochloride]",–,–,–,32 mg/kg,12 mg/kg
CN(C)C1CCc2c([nH]c3ccccc23)C1 (stereo not drawn) [Compound 3k],–,–,–,39 mg/kg,11.4 mg/kg
"CN(C)CCC=C1c2ccccc2CCc2ccccc21 [amitriptyline, reference compound]",–,–,–,2.6 mg/kg,1.2 mg/kg
